Data published in patent publication US8188135B2, “Compounds as cannabinoid receptor ligands” (priority 2008, dated 2012).

Tests used:
human CB2 receptors = biological target: T1, human CB2 receptors (Homo sapiens, UniProt P34972); experiment: human CB2 radioligand binding assay ([3H]CP 55,940 competition); settings: human CB2 (Ki, nM), HEK293 membranes, 0.5 nM [3H]CP 55,940
T1 construct: expressed in transfected cells; host or cells: HEK293
Procedure, shortened: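 Displacement of 0.5 nM [3H]CP 55,940 over 0.01 nM-10 μM test compound, measured on human CB2 membranes from stably transfected HEK293 cells. Incubation 90 min at 30 °C in Tris/EDTA/MgCl2/BSA, pH 7.4, then filter-bound radioactivity counted; 10 μM unlabeled CP 55,940 defined nonspecific binding.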

Rat CB1 = biological target: T2, Rat CB1 (Rattus norvegicus, UniProt P20272); experiment: rat CB1 cyclase functional assay (HitHunter cAMP); assay type: cell-based; settings: Rat CB1 cyclase (EC50, nM), HEK cells, forskolin 37 μM
T2 construct: expressed in transfected cells; host or cells: HEK
Procedure, shortened: (§1)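 HEK cells expressing rat CB1 or CB2, 10,000 cells/well, incubated 20 min at 37° C with test ligands plus forskolin (37 μM for CB1, 18 μM for CB2) in DPBS with 0.01% BSA. cAMP read by enzyme-complementation luminescence after lysis; EC50 from sigmoidal dose-response fit.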

[1] = pharmacokinetic studies in rats; settings: male, Sprague-Dawley, rat, in vivo; for clearance / half-life: iv, 3 micromole/kg; for bioavailability: po, 10 micromole/kg
Description: Male Sprague-Dawley rats, weighing 250-400 g, were obtained from Charles Rivers Laboratories. Pharmacokinetic studies were conducted in three groups of rats; each group contained three animals. All groups were dosed with a solution formulation. The first group of three rats received an intravenous dose, administered under isoflurane anesthetic. The second group received an intraperitoneal dose and the third group received an oral dose, administered by gavage. Sequential blood samples were obtained from a tail vein of each animal for 8-24 hours after dosing. Plasma was separated by centrifugation and stored frozen until analysis.
Half life […] and plasma clearance values are based on intravenous administration (3 micromole/kg).
Half life (t1/2) and plasma clearance values are based on intravenous administration (3 micromole/kg).

rat CB2 [2] = biological target: T3, rat CB2 (Rattus norvegicus, UniProt Q9QZN9); experiment: rat CB2 cyclase functional assay (HitHunter cAMP); assay type: cell-based; design: expressed in transfected cells; host or cells: HEK; settings: rat CB2 cyclase (EC50, nM), HEK cells, forskolin 18 μM
T3 sequence (Q9QZN9 1-360): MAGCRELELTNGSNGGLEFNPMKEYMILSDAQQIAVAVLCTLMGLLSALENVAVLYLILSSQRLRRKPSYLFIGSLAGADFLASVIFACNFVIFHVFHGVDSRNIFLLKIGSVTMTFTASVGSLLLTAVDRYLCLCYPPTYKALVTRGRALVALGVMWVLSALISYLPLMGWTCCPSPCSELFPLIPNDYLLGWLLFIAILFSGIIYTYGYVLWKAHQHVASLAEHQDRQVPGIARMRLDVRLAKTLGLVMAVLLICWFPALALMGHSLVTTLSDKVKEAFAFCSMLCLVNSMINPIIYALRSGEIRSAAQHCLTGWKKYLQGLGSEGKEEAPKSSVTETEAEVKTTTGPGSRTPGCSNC
Procedure, shortened: as §1

rat CB2 [3] = biological target: T3, rat CB2; experiment: rat CB2 radioligand binding assay ([3H]CP 55,940 competition); design: expressed in transfected cells; host or cells: HEK293; settings: rat CB2 (Ki, nM), HEK293 membranes, 0.5 nM [3H]CP 55,940
Procedure, shortened: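 Competition binding against 0.5 nM [3H]CP 55,940 (pH 7.4 buffer with 0.5 mg/mL BSA, 30 °C, 45 min), with displacers spanning 0.01 nM–10 μM at five concentrations. Receptor source: stably transfected HEK293 membranes, 20 μg/well. Nonspecific binding defined by 10 μM unlabeled CP 55,940; readout by filtration and counting.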

T1 sequence (P34972 whole entry): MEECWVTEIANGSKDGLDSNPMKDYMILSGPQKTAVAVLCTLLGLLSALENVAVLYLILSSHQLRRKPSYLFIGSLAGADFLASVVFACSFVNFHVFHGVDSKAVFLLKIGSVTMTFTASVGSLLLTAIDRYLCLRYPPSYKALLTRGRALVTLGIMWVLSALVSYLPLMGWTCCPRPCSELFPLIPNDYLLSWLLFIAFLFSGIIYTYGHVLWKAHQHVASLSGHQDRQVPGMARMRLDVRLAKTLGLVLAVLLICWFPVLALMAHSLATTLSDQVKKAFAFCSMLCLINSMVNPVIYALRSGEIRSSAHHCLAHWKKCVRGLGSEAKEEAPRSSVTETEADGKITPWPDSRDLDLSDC
T2 sequence (P20272 whole entry): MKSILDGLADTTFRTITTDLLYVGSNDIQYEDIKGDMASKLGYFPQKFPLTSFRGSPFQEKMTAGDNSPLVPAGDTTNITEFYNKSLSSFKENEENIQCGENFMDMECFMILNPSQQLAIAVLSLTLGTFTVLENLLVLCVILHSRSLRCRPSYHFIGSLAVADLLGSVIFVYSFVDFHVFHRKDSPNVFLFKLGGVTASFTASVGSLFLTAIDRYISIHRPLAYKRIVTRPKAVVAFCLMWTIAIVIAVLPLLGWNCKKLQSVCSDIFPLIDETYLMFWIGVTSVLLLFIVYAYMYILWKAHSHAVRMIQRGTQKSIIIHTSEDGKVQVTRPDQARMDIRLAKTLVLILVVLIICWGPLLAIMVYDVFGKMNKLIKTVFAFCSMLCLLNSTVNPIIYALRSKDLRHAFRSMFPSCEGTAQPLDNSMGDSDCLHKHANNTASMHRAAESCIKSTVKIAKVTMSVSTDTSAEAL

Compound	Ki (human CB2 receptors) [nM]	EC50 (Rat CB1) [nM]	clearance [1] [mL/min/kg]	half-life [1] [h]	bioavailability [1] [%]	EC50 (rat CB2 [2]) [nM]	Ki (rat CB2 [3]) [nM]
Cn1c(C(C)(C)C)c/c(=N\C(=O)c2cc(C(F)(F)F)ccc2OCC(C)(C)O)n1CCC(F)(F)F [Example 87, N-[(3E)-5-tert-butyl-1-methyl-2-(3,3,3-trifluoropropyl)-1,2-dihydro-3H-pyrazol-3-ylidene]-2-(2-hydroxy-2-methylpropoxy)-5-(trifluoromethyl)benzamide]	18	3110	5	3.2	64	0.25	7.6
Cn1c(C2(C)CC2)c/c(=N\C(=O)c2cc(C(F)(F)F)ccc2OCCC(C)(C)O)n1C[C@H]1CCCO1 [Example 68, 2-(3-hydroxy-3-methylbutoxy)-N-{(3E)-1-methyl-5-(1-methylcyclopropyl)-2-[(2 R)-tetrahydrofuran-2-ylmethyl]-1,2-dihydro-3H-pyrazol-3-ylidene}-5-(trifluoromethyl)benzamide]	77	> 27000	40	2.2	25	0.2	13
Cn1c(C(C)(C)C)c/c(=N\C(=O)c2cc(Cl)ccc2OCC(C)(C)O)n1C[C@H]1CCCO1 [Example 89, N-{(3E)-5-tert-butyl-1-methyl-2-[(2R)-tetrahydrofuran-2-ylmethyl]-1,2-dihydro-3 H-pyrazol-3-ylidene}-5-chloro-2-(2-hydroxy-2-methylpropoxy)benzamide]	19	2320	16.7	1.6	37	0.61	7.6
Cn1c(C(C)(C)C)c/c(=N\C(=O)c2cc(C(F)(F)F)ccc2OCC(C)(C)O)n1CC1CCC1 [Example 86, N-[(3E)-5-tert-butyl-2-(cyclobutylmethyl)-1-methyl-1,2-dihydro-3H-pyrazol-3-ylidene]-2-(2-hydroxy-2-methylpropoxy)-5-(trifluoromethyl)benzamide]	8.3	4020	5	5.4	50	0.23	4.3
CCCCn1/c(=N/C(=O)c2cc(C(F)(F)F)ccc2OCC(C)(C)O)cc(C(C)(C)C)n1C [Example 81, N-[(3E)-2-butyl-5-tert-butyl-1-methyl-1,2-dihydro-3H-pyrazol-3-ylidene]-2-(2-hydroxy-2-methylpropoxy)-5-(trifluoromethyl)benzamide]	44	3360	3.33	5	61	0.5	25
Cn1c(C(C)(C)C)c/c(=N\C(=O)c2cc(C(F)(F)F)ccc2OCCC(C)(C)O)n1CC1CC1 [Example 51, N-[(3E)-5-tert-butyl-2-(cyclopropylmethyl)-1-methyl-1,2-dihydro-3H-pyrazol-3-ylidene]-2-(3-hydroxy-3-methylbutoxy)-5-(trifluoromethyl)benzamide]	80	> 27000	8.33	3.2	52	0.46	15
Cn1c(C2(C)CC2)c/c(=N\C(=O)c2cc(C(F)(F)F)ccc2OCC(C)(C)O)n1C[C@H]1CCCO1 [Example 70, 2-(2-hydroxy-2-methylpropoxy)-N-{(3E)-1-methyl-5-(1-methylcyclopropyl)-2-[(2 R)-tetrahydrofuran-2-ylmethyl]-1,2-dihydro-3H-pyrazol-3-ylidene}-5-(trifluoromethyl)benzamide]	27	> 27000	30	2.3	46	0.47	4.4
Cn1c(C(C)(C)C)c/c(=N\C(=O)c2cc(C#N)ccc2OCC(C)(C)O)n1C[C@H]1CCCO1 [Example 90, N-{(3E)-5-tert-butyl-1-methyl-2-[(2R)-tetrahydrofuran-2-ylmethyl]-1,2-dihydro-3 H-pyrazol-3-ylidene}-5-cyano-2-(2-hydroxy-2-methylpropoxy)benzamide]	41	> 27000	41.7	2.1	28	1.8	11
Cn1c(C(C)(C)C)c/c(=N\C(=O)c2cc(C#N)ccc2OCC(C)(C)O)n1CC1CCCC1 [Example 127, N-[(3E)-5-tert-butyl-2-(cyclopentylmethyl)-1-methyl-1,2-dihydro-3H-pyrazol-3-ylidene]-5-cyano-2-(2-hydroxy-2-methylpropoxy)benzamide]	47	> 27000	46.7	0.8	60	1.78	12
Cn1c(C(C)(C)C)c/c(=N\C(=O)c2cc(C(F)(F)F)ccc2OCC(C)(C)O)n1C[C@H]1CCCO1 [Example 5, N-{(3E)-5-tert-butyl-1-methyl-2-[(2R)-tetrahydrofuran-2-ylmethyl]-1,2-dihydro-3H-pyrazol-3-ylidene}-2-(2-hydroxy-2-methylpropoxy)-5-(trifluoromethyl)benzamide]	10	7690	18.3	2.1	37	0.22	5.5
Cn1c(C(C)(C)C)c/c(=N\C(=O)c2cc(C(F)(F)F)ccc2OCCC(C)(C)O)n1C[C@H]1CCCO1 [Example 20, N-{(3E)-5-tert-butyl-1-methyl-2-[(2R)-tetrahydrofuran-2-ylmethyl]-1,2-dihydro-3H-pyrazol-3-ylidene}-2-(3-hydroxy-3-methylbutoxy)-5-(trifluoromethyl)benzamide]	35	6850	13.3	3.9	27	0.57	11
